Data on 24 compounds can be found in patent US20110178104A1, “Anti-Heparin Compounds” (POLYMEDIX INC., priority 2010, published 2011).

Structures are written as SMILES. Where only a bound is given, the exact number is not on record here.

In test [1] the test system is fondaparinux (FONDAPX). Kind of test: FXa chromogenic assay (absence of plasma), fondaparinux. The note with it: fondaparinux 0.02 μg/mL, absence of plasma.
Test [2] deals with enoxaparin (ENOX). Kind of test: FXa chromogenic assay (absence of plasma), enoxaparin. The note with it: enoxaparin 0.1 μg/mL, absence of plasma.
The subject of test [3] is tinzaparin. Kind of test: FXa amidolytic assay (Example 10), tinzaparin. The note with it: read-out: Tinzap FXa EC50; tinzaparin 0.1 ug/ml; human antithrombin, bovine Factor Xa.
Procedure: (§1) Two μl of test agent are added (range between 0.01 and 23 ug/ml) and incubated for 5 minutes at 23° C. Bovine Factor Xa was added to a final concentration of 0.636 nkat/mL and incubated for a further 10 minutes at 23° C.
The subject of test [4] is fondaparinux. Kind of test: FXa amidolytic assay (Example 10), fondaparinux. The note with it: read-out: Fondap FXa EC50; fondaparinux 0.02 μg/mL; human antithrombin, bovine Factor Xa.
Procedure: as §1
In test [5] the test system is Unfractionated heparin. Put plainly: aPTT clotting assay, UFH 0.4 U/mL in plasma (Example 10). The class given is biochemical. The note with it: unfractionated heparin 0.4 U/mL in plasma; aPTT clotting. Here is the method:
aPTT clotting Assay: Unfractionated heparin was mixed with plasma at a final concentration of 0.4 U/mL (or concentration which increases aPTT time to between 120 and 300 seconds). […] The ACL Elite Hemostasis analyzer (Beckman Coulter™) was used to add aPTT reagent (HemosIL SynthASil) to supplemented plasma. Clotting was initiated by addition of CaCl2 and time to clot was recorded.

Test [6] has as its system enoxaparin. Put plainly: FXa amidolytic assay (Example 10), enoxaparin. The note with it: read-out: Enox FXa EC50; enoxaparin 0.1 ug/ml; human antithrombin, bovine Factor Xa.
Procedure: as §1

As to `COc1ccc(NC(=O)[C@@H](CCCNC(=N)N)NC(=O)c2cc(NC(=O)[C@@H](CCCNC(=N)N)NC(=O)c3cc(NC(=O)[C@@H](CCCNC(=N)N)NC(=O)c4cc(NC(=O)[C@@H](C)NC(C)=O)ccc4OC)ccc3OC)ccc2OC)cc1C(=O)NCCCCCN` [Compound 60], the “FONDAPX (FXa) EC50” value in test [1] stood at 2.66 µg/mL. In test [2], the “ENOX (FXa) EC50” value was 0.21 µg/mL.
Taken in the same sequence, the figures for `N=C(N)NCCC[C@@H](N)C(=O)Nc1cccc(C(=O)N[C@H](CCCNC(=N)N)C(=O)Nc2cccc(C(=O)N[C@H](CCCNC(=N)N)C(=O)Nc3cccc(C(=O)N[C@H](CCCNC(=N)N)C(=O)Nc4cccc(C(N)=O)c4)c3)c2)c1` [Compound 20] were 11.10 µg/mL and 8.62 µg/mL.
For `COc1ccc(NC(=O)[C@@H](C)NC(=O)c2cc(NC(=O)[C@@H](CCCNC(=N)N)NC(=O)c3cc(NC(=O)[C@@H](CCCNC(=N)N)NC(=O)c4cc(NC(=O)[C@H](N)CCCNC(=N)N)ccc4OC)ccc3OC)ccc2OC)cc1C(N)=O` [Compound 13], in that order: 6.72 µg/mL and 0.88 µg/mL.
For `N=C(N)NCCC[C@@H](N)C(=O)Nc1ccc(F)c(C(=O)N[C@H](CCCNC(=N)N)C(=O)Nc2ccc(F)c(C(=O)N[C@H](CCCNC(=N)N)C(=O)Nc3ccc(F)c(C(=O)N[C@H](CCCNC(=N)N)C(=O)Nc4ccc(F)c(C(N)=O)c4)c3)c2)c1` [Compound 23], in that order: 18.01 µg/mL and 3.68 µg/mL.
For `COc1ccc(NC(=O)[C@@H](CCCNC(=N)N)NC(=O)c2cc(NC(=O)[C@@H](CCCNC(=N)N)NC(=O)c3cc(NC(=O)[C@@H](CCCNC(=N)N)NC(=O)c4cc(NC(=O)[C@@H](C)NC(=O)CCCCNC(=N)N)ccc4OC)ccc3OC)ccc2OC)cc1C(=O)NCCCCCN` [Compound 61], the “FONDAPX (FXa) EC50” value in test [1] came to 2.99 µg/mL. For the same compound, the “ENOX (FXa) EC50” value in test [2] amounted to 0.11 µg/mL.
With `COc1ccc(NC(=O)[C@H](N)CCCNC(=N)N)cc1C(=O)N[C@H](CCCNC(=N)N)C(=O)Nc1ccc(OC)c(C(=O)N[C@H](CCCNC(=N)N)C(=O)Nc2ccc(OCCNC(=N)N)c(C(=O)N[C@H](CCCNC(=N)N)C(=O)Nc3ccc(OCCNC(=N)N)c(C(N)=O)c3)c2)c1` [Compound 10], the “ENOX (FXa) EC50” value in test [2] came out at 1.43 µg/mL.
Consider `N=C(N)NCCC[C@@H](N)C(=O)Nc1ccc(OCCNC(=N)N)c(C(=O)N[C@H](CCCNC(=N)N)C(=O)Nc2ccc(OCCNC(=N)N)c(C(=O)N[C@H](CCCNC(=N)N)C(=O)Nc3ccc(OCCNC(=N)N)c(C(=O)N[C@H](CCCNC(=N)N)C(=O)Nc4ccc(OCCNC(=N)N)c(C(N)=O)c4)c3)c2)c1` [Compound 31], for which the “ENOX (FXa) EC50” value in test [2] came out at 0.72 µg/mL.
`COc1ccc(NC(=O)[C@H](N)CCCNC(=N)N)cc1C(=O)N[C@H](CCCNC(=N)N)C(=O)Nc1ccc(OC)c(C(=O)N[C@H](CCCNC(=N)N)C(=O)Nc2ccc(OC)c(C(=O)N[C@H](CCCNC(=N)N)C(=O)Nc3ccc(OCCNC(=N)N)c(C(N)=O)c3)c2)c1` [Compound 18]: in test [2], the “ENOX (FXa) EC50” value is 0.57 µg/mL.
On to `COc1ccc(NC(=O)[C@H](CCCN)NC(=O)c2cc(NC(=O)[C@H](CCCN)NC(=O)c3cc(NC(=O)[C@H](CCCN)NC(=O)c4cc(NC(=O)[C@@H](N)CCCN)ccc4OC)ccc3OC)ccc2OC)cc1C(N)=O` [Compound 89], for which, in test [2], the “ENOX (FXa) EC50” value is 16.70 µg/mL.
As to `COc1ccc(NC(=O)[C@H](CCC(=O)O)NC(=O)c2cc(NC(=O)[C@H](CCCNC(=N)N)NC(=O)c3cc(NC(=O)[C@H](CCCNC(=N)N)NC(=O)c4cc(NC(=O)[C@@H](N)CCCNC(=N)N)ccc4OC)ccc3OC)ccc2OC)cc1C(N)=O` [Compound 323], the EC50 – broadly, the midpoint of the concentration-response curve – in test [3] came out at 250 nM; in test [4] it was 1160 nM; in test [5], 2960 nM; in test [6], 326 nM.
Taken in the same sequence, the figures for `COc1ccc(NC(=O)[C@H](CCCCN)NC(=O)c2cc(C(=O)N[C@@H](CCCCN)C(=O)Nc3ccc(OC)c(C(=O)N[C@@H](CCCCN)C(N)=O)c3)c(OC)cc2OC)cc1C(=O)N[C@@H](CCCCN)C(N)=O` [Compound 427] were greater than 5000 nM, greater than 10000 nM, greater than 10000 nM and greater than 5000 nM.
Taken in the same sequence, the figures for `COc1ccc(NC(=O)[C@H](CCCCN)NC(=O)c2cc(NC(=O)[C@H](CCC(=O)O)NC(=O)c3cc(NC(=O)[C@H](CCCCN)NC(=O)c4cc(NC(=O)[C@@H](N)CCCCN)ccc4OC)ccc3OC)ccc2OC)cc1C(N)=O` [Compound 316] were 223 nM, 1750 nM, 2040 nM and 329 nM.
For `COc1cc(OC)c(C(=O)NCCCNC(=O)c2cc(C(=O)NCCCNC(=O)c3cc(C(=O)NCCCN)c(OC)cc3OC)c(OC)cc2OC)cc1C(=O)NCCCN` [Compound 408], the EC50 in test [3] is greater than 5000 nM; in test [4], greater than 10000 nM; in test [5], greater than 10000 nM; in test [6], greater than 5000 nM.
For the compound `COc1ccc(NC(=O)[C@H](CCCCN)NC(=O)c2cc(NC(=O)[C@@H](N)CCCCN)ccc2OC)cc1C(=O)N[C@@H](CCCCN)C(=O)Nc1ccc(OC)c(C(=O)N[C@@H](CCCCN)C(=O)Nc2ccc(OC)c(C(=O)N[C@H](C(=O)O)C(C)C)c2)c1` [Compound 267], the EC50 in test [3] amounted to 313 nM; in test [4] it was 6990 nM; in test [5] it was 1670 nM; in test [6], 543 nM.
For `COc1ccc(NC(=O)[C@H](CCCCN)NC(=O)c2cc(NC(=O)[C@H](CCCCN)NC(=O)c3cc(NC(=O)[C@H](CCCCN)NC(=O)c4cc(C(=O)NCCCCCN)c(OC)cc4OC)ccc3OC)ccc2OC)cc1C(N)=O` [Compound 248], in that order: 158 nM, 1840 nM, 2080 nM and 208 nM.
Taken in the same sequence, the figures for `COc1cc(OC)c(C(=O)N[C@H]2CC[C@H](NC(=O)c3cc(C(=O)NCCN(C)C)c(OCCCCCN)cc3OCCCCCN)CC2)cc1C(=O)NCCN(C)C` [Compound 228] were greater than 5000 nM, greater than 10000 nM, 1110 nM and 281 nM.
In the case of `COc1ccc(NC(=O)[C@H](CCCNC(=N)N)NC(=O)c2cc(NC(=O)[C@H](CCCNC(=N)N)NC(=O)c3cc(NC(=O)[C@H](CCCNC(=N)N)NC(=O)c4cc(NC(=O)[C@@H](N)CCC(=O)O)ccc4OC)ccc3OC)ccc2OC)cc1C(N)=O` [Compound 326], the EC50 stood at 234 nM in test [3], 549 nM in test [4], 1990 nM in test [5] and 289 nM in test [6].
For `COc1ccc(NC(=O)[C@@H](CCCNC(=N)N)NC(=O)c2cc(NC(=O)[C@@H](CCCNC(=N)N)NC(=O)c3cc(NC(=O)[C@@H](CCCNC(=N)N)NC(=O)c4cc(NC(C)=O)ccc4OC)ccc3OC)ccc2OC)cc1C(=O)NCCC(=O)O` [Compound 295], in that order: 325 nM, 387 nM, 3990 nM and 312 nM.
For `COc1ccc(NC(=O)[C@H](CCCCN)NC(=O)c2cc(NC(=O)[C@H](CCCCN)NC(=O)c3cc(NC(=O)[C@H](CCCNC(N)=O)NC(=O)c4cc(NC(=O)[C@@H](N)CCCCN)ccc4OC)ccc3OC)ccc2OC)cc1C(N)=O` [Compound 257], in that order: 130 nM, 1450 nM, 1330 nM and 205 nM.
Regarding `COc1ccc(NC(=O)[C@H](CCCNC(=N)N)NC(=O)c2cc(NC(=O)[C@H](CCCNC(=N)N)NC(=O)c3cc(NC(=O)[C@H](CCCNC(=N)N)NC(=O)c4cc(NC(C)=O)ccc4OC)ccc3OC)ccc2OC)cc1C(=O)NCCC(=O)O` [Compound 300], the EC50 in test [3] is 311 nM; in test [4], 462 nM; in test [5] it was 3430 nM; in test [6] it was 272 nM.
Take `COc1ccc(NC(=O)[C@H](CCCCN)NC(=O)c2cc(NC(=O)[C@H](CCCCN)NC(=O)c3cc(NC(=O)[C@H](CCCCN)NC(=O)c4cc(NC(=O)[C@H](CCCCN)NC(=O)CCC(=O)O)ccc4OC)ccc3OC)ccc2OC)cc1C(N)=O` [Compound 339]: the EC50 is 235 nM in test [3], 1900 nM in test [4], 910 nM in test [5] and 272 nM in test [6].
As for `COc1ccc(NC(=O)[C@H](CCCCN)NC(=O)c2cc(NC(=O)[C@H](CCCCN)NC(=O)c3cc(NC(=O)[C@H](CCCCN)NC(=O)c4cc(NC(=O)[C@@H](N)CCCCN)ccc4OC)ccc3OC)ccc2OC)cc1C(=O)N[C@@H](C)C(=O)O` [Compound 262], the EC50 in test [3] amounted to 213 nM; in test [4], 5570 nM; in test [5] it was 1260 nM; in test [6], 344 nM.
In the case of `COc1ccc(NC(=O)[C@H](CCCNC(=N)N)NC(=O)c2cc(NC(=O)[C@H](CCC(=O)O)NC(=O)c3cc(NC(=O)[C@H](CCCNC(=N)N)NC(=O)c4cc(NC(=O)[C@@H](N)CCCNC(=N)N)ccc4OC)ccc3OC)ccc2OC)cc1C(N)=O` [Compound 324], the EC50 in test [3] was determined as 438 nM; in test [4], 3840 nM; in test [5] it was 2930 nM; in test [6], 784 nM.
For `COc1cc(OC)c(C(=O)N[C@H]2CC[C@@H](NC(=O)c3cc(C(=O)NCCN)c(OCCCCCN)cc3OCCCCCN)CC2)cc1C(=O)N[C@H]1CC[C@@H](N=C(N(C)C)N(C)C)CC1` [Compound 414], in that order: 2060 nM, greater than 10000 nM, greater than 10000 nM and 3320 nM.
